Measured values: ChEMBL document CHEMBL1150473, “Schotten-Baumann acylation of N-debenzoyltaxol; an efficient route to N-acyl taxol analogues and their biological evaluation” (1994)

Tests used:
[1] = biological target: Tubulin alpha chain (Sus scrofa) (UniProt P02550); assay: Evaluated for ability to initiate the polymerization of tubulin in the microtubule assembly assay expressed as ED50(compound) / ED50(taxol); format: functional
[2] = test system: B16; assay: Cytotoxic ratio of inhibition of B16 melanoma cell proliferation after 40 hour incubation relative to taxol; format: functional, Mus musculus

Sequence of Tubulin alpha chain (Sus scrofa) (P02550 whole entry, looked up): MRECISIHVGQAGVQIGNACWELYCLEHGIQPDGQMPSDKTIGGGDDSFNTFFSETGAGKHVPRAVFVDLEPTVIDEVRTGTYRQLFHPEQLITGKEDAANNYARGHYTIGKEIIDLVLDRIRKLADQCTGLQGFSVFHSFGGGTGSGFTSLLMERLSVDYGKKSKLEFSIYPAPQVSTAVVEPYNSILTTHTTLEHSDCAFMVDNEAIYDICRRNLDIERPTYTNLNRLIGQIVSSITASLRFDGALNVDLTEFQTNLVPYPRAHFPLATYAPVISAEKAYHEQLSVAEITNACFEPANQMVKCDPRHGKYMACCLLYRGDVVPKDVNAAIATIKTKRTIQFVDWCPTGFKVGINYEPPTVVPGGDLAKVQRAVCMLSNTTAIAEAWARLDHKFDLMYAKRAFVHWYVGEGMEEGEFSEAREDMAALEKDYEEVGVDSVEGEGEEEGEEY

| SMILES | ED50 ratio [1] | ED50 ratio [2] |
| --- | --- | --- |
| CC(=O)O[C@@]12CO[C@@H]1C[C@H](O)[C@@]1(C)C(=O)[C@H](O)C3=C(C)[C@@H](OC(=O)[C@H](O)[C@@H](NC(=O)OC(C)(C)C)c4ccccc4)C[C@@](O)([C@@H](OC(=O)c4ccccc4)[C@H]21)C3(C)C.O.O.O [DOCETAXEL] | 0.55 | 0.23 |
| CC(=O)O[C@H]1C(=O)[C@@]2(C)[C@H]([C@H](OC(=O)c3ccccc3)[C@]3(O)C[C@H](OC(=O)[C@H](O)[C@@H](NC(=O)C(C)(C)C)c4ccccc4)C(C)=C1C3(C)C)[C@]1(OC(C)=O)CO[C@@H]1C[C@@H]2O | 2.61 | 22.4 |
| CC(=O)O[C@H]1C(=O)[C@@]2(C)[C@H]([C@H](OC(=O)c3ccccc3)[C@]3(O)C[C@H](OC(=O)[C@H](O)[C@@H](NC(=O)CC(C)(C)C)c4ccccc4)C(C)=C1C3(C)C)[C@]1(OC(C)=O)CO[C@@H]1C[C@@H]2O | 0.74 | 3.13 |
| CC(=O)O[C@H]1C(=O)[C@@]2(C)[C@H]([C@H](OC(=O)c3ccccc3)[C@]3(O)C[C@H](OC(=O)[C@H](O)[C@@H](NC(=O)CC(C)C)c4ccccc4)C(C)=C1C3(C)C)[C@]1(OC(C)=O)CO[C@@H]1C[C@@H]2O | 1.18 | 2.65 |
| CC(=O)O[C@H]1C(=O)[C@@]2(C)[C@H]([C@H](OC(=O)c3ccccc3)[C@]3(O)C[C@H](OC(=O)[C@H](O)[C@@H](NC(=O)c4c(F)c(F)c(N=[N+]=[N-])c(F)c4F)c4ccccc4)C(C)=C1C3(C)C)[C@]1(OC(C)=O)CO[C@@H]1C[C@@H]2O | 4.6 | 14.8 |
| CC(=O)O[C@H]1C(=O)[C@@]2(C)[C@H]([C@H](OC(=O)c3ccccc3)[C@]3(O)C[C@H](OC(=O)[C@H](O)[C@@H](NC(=O)c4ccccc4)c4ccccc4)C(C)=C1C3(C)C)[C@]1(OC(C)=O)CO[C@@H]1C[C@@H]2O [PACLITAXEL] | 1 | 1 |
